Molecules are shown by their SMILES. Converted amounts (≈) assume the structure as drawn. Read-outs that look alike come from different tables or passages of the source.

The values below come from publication PMC6149664, “Synthesis and In Vitro Antimycobacterial Activity of Novel N-Arylpiperazines Containing an Ethane-1,2-diyl Connecting Chain” (Molecules : A Journal of Synthetic Chemistry and Natural …, 2017).

One assay concerns M. kansasii CIT11/06. In words: In vitro antimycobacterial MIC (IC90), alamarBlue 96-well assay in Middlebrook broth. The settings on record: 7 days incubation, read-out: MIC, MK CIT11/06. Format: cell-based, Mycobacterium kansasii. In general terms: Alamar Blue is a resazurin reagent that responds to reducing activity.
In assay [1] the test system is M. tuberculosis CNCTC My 331/88 (identical with H37Rv and ATCC 2794). Nature of the assay: In vitro antimycobacterial MIC, dilution-micromethod in Šula semisynthetic medium. The settings on record: Mycobacterium tuberculosis. Format: cell-based.
Assay [2] has as its system M. kansasii CNCTC My 235/80 (identical with ATCC 12478). The assay is described as above. It is filed as cell-based, Mycobacterium kansasii.
The test system of assay [3] is M. kansasii 6 509/96 clinical isolate. The description is as above. The settings on record: Mycobacterium kansasii, read-out: MIC, MK 6 509/96. It is filed as cell-based.
In assay [4] the test system is M. avium CNCTC My 330/80 (identical with ATCC 25291). The description is as above. The settings on record: Mycobacterium avium. Format: cell-based.
Assay [5] relates to M. avium subsp. paratuberculosis CIT03. In words: microbe, parasite or virus in culture. It is filed as cell-based. The settings on record: Mycobacterium avium, 168 h, read-out: MIC, MAP CIT03.
Assay [6] relates to M. avium intracellulare ATCC 13950. In words: In vitro antimycobacterial MIC (IC90), alamarBlue 96-well assay in Middlebrook broth. Format: cell-based, Mycobacterium avium intracellulare. The settings on record: Mycobacterium avium, ATCC13950, 168 h, 7 days incubation, read-out: MIC, MAI ATCC 13950.
Assay [7] concerns M. avium hominissuis CIT10/08. The assay is described as above. The settings on record: Mycobacterium avium, 168 h, 7 days incubation, read-out: MIC, MAH CIT10/08. It is filed as cell-based, Mycobacterium avium hominissuis.
[8] abbreviates: Mycobacterium kansasii, CIT11/06, 168 h.
[9] abbreviates: 336 h, 14 d cultivation, read-out: MIC, MT My 331/88.
Where [10] appears, read: 504 h, 21 d cultivation, read-out: MIC, MT My 331/88.
[11] abbreviates: Mycobacterium kansasii, ATCC12478, 168 h, 7 d cultivation, read-out: MIC, MK My 235/80.
[12] abbreviates: Mycobacterium kansasii, ATCC12478, 336 h, 14 d cultivation, read-out: MIC, MK My 235/80.
Setting [13] is: Mycobacterium kansasii, ATCC12478, 336 h, both M. kansasii strains, depending on strain and number of days of incubation (standards: 14-d/21-d), read-out: MIC against M. kansasii My 235/80 and M. kansasii 6 509/96.
[14] abbreviates: Mycobacterium kansasii, ATCC12478, 504 h, 21 d cultivation, read-out: MIC, MK My 235/80.
Setting [15] is: both M. kansasii strains, depending on strain and number of days of incubation (standards: 14-d/21-d), read-out: MIC against M. kansasii My 235/80 and M. kansasii 6 509/96.
Where [16] appears, read: ATCC25291, 336 h, 14 d cultivation, read-out: MIC, MA My 330/88.
The mark [17] stands for this setting: ATCC25291, 504 h, 21 d cultivation, read-out: MIC, MA My 330/88.

`O=C(O)c1cn(C2CC2)c2cc(N3CCNCC3)c(F)cc2c1=O` [CPX, ciprofloxacin, reference compound]: the MIC with M. kansasii CIT11/06 and in the assay with M. kansasii CIT11/06 (setting [8]) was more than 91 µM throughout.
On to `CC1COc2c(N3CCN(C)CC3)c(F)cc3c(=O)c(C(=O)O)cn1c23` (stereo not shown) [OFLX, ofloxacin, reference compound], for which the MIC turned out to be 1 µM (≈ 0.361 µg/mL) in assay [1] (setting [9]); 2 µM (≈ 0.723 µg/mL) in assay [1] (setting [10]); 0.5 µM (≈ 0.181 µg/mL) in assay [2] (setting [11]); 1 µM (≈ 0.361 µg/mL) in assay [2] (setting [12]); 0.5 µM (≈ 0.181 µg/mL) in assay [2] (setting [13]); 1 µM (≈ 0.361 µg/mL) in assay [2] (setting [14]). Besides, the MIC in assay [2] (setting [15]) was found to be 1 µM (≈ 0.361 µg/mL); in assay [3] (168 h, 7 d cultivation), 0.5 µM (≈ 0.181 µg/mL); in assay [3] (336 h, 14 d cultivation), 0.5 µM (≈ 0.181 µg/mL); in assay [3] (504 h, 21 d cultivation) it was 1 µM (≈ 0.361 µg/mL); in assay [4] (setting [16]), 32 µM (≈ 11.6 µg/mL); in assay [4] (setting [17]), 62.5 µM (≈ 22.6 µg/mL).
Take `NC(=O)c1cnccn1` [PZA, pyrazinamide, reference compound]: the MIC was more than 2030 µM in the assay with M. kansasii CIT11/06 (setting [8]), more than 2030 µM in assay [5], more than 2030 µM in assay [6] and 487 µM (≈ 60 µg/mL) in assay [7].
As for `CC[C@@H](CO)NCCN[C@@H](CC)CO` [EMB, ethambutol, reference compound], the MIC in assay [1] (setting [9]) was determined as 1 µM (≈ 0.204 µg/mL); in assay [1] (setting [10]), 2 µM (≈ 0.409 µg/mL); in assay [2] (setting [11]), 1 µM (≈ 0.204 µg/mL); in assay [2] (setting [12]), 2 µM (≈ 0.409 µg/mL); in assay [2] (setting [13]), 1 µM (≈ 0.204 µg/mL); in assay [2] (setting [14]), 2 µM (≈ 0.409 µg/mL). Also, the MIC amounted to 2 µM (≈ 0.409 µg/mL) in assay [2] (setting [15]); 1 µM (≈ 0.204 µg/mL) in assay [3] (168 h, 7 d cultivation); 2 µM (≈ 0.409 µg/mL) in assay [3] (336 h, 14 d cultivation); 2 µM (≈ 0.409 µg/mL) in assay [3] (504 h, 21 d cultivation); 16 µM (≈ 3.27 µg/mL) in assay [4] (ATCC25291, 336 h, 14-d/21-d, read-out: MIC against M. avium CNCTC My 330/80); 16 µM (≈ 3.27 µg/mL) in assay [4] (setting [16]). The MIC in assay [4] (setting [17]) is 16 µM (≈ 3.27 µg/mL).
Turning to `NNC(=O)c1ccncc1` [INH, isonicotinic acid hydrazide, reference compound], the MIC in assay [1] (336 h, 14-d/21-d cultivation, read-out: MIC against M. tuberculosis CNCTC My 331/88) was 0.5 µM (≈ 0.0686 µg/mL); in assay [1] (setting [9]), 0.5 µM (≈ 0.0686 µg/mL); in assay [1] (setting [10]), 0.5 µM (≈ 0.0686 µg/mL); in assay [2] (setting [11]) it was more than 250 µM; in assay [2] (setting [12]) it was more than 250 µM; in assay [2] (setting [14]), more than 250 µM. Also, the MIC is 4 µM (≈ 0.549 µg/mL) in assay [3] (168 h, 7 d cultivation); 8 µM (≈ 1.1 µg/mL) in assay [3] (336 h, 14 d cultivation); 8 µM (≈ 1.1 µg/mL) in assay [3] (504 h, 21 d cultivation); more than 250 µM in assay [4] (setting [16]); more than 250 µM in assay [4] (setting [17]); more than 1820 µM in the assay with M. kansasii CIT11/06 (setting [8]). Moreover, the MIC in assay [5], in assay [6] and in assay [7] was more than 1820 µM throughout.
